Measurements reported in patent US20140323500A1, “NADPH OXIDASE 4 INHIBITORS AND USE THEREOF” (GENKYOTEX SA, priority 2011, published 2014).
pKi: −log10 of the molar value.

Molecular target: T1, human Nox4 (Homo sapiens, UniProt Q9NPH5)
T1 construct: expressed in transfected cells; host or cells: T-REx-293 (hNOX4 T-REx-293), tetracycline-induced; membrane fraction
T1 sequence (Q9NPH5 1-578): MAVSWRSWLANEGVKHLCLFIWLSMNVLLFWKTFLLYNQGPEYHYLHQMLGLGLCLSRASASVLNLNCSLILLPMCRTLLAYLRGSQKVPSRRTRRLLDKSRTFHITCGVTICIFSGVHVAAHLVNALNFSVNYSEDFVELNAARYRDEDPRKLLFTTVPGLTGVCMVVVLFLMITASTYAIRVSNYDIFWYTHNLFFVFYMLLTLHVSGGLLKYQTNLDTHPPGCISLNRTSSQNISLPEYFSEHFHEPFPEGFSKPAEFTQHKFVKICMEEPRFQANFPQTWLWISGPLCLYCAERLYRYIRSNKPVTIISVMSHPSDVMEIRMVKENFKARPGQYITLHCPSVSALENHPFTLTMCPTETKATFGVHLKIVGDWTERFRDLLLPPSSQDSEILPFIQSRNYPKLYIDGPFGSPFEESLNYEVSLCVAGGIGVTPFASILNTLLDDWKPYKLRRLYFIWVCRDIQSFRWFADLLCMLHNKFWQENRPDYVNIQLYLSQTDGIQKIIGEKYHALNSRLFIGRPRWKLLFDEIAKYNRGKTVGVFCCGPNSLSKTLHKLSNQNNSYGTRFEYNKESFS
T1 sequence (P13498 2-195 partner limits assumed): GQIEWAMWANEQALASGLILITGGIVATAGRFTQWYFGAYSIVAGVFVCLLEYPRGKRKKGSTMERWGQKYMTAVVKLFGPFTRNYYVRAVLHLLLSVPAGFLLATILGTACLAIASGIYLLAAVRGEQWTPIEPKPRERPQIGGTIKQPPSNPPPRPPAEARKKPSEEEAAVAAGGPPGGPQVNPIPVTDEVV
Assay: ROS production by membranes expressing human Nox4, cell-free Amplex Red assay
Format: biochemical
Details: cell-free membranes, Amplex Red; Cheng-Prusoff; average of at least three experiments in triplicate; read-out: Ki hNox4
Procedure, shortened: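 Membranes from tetracycline-induced (1 μg/ml, 24 h) T-REx cells overexpressing human Nox4, incubated in PBS with Amplex Red, HRP and co-factors; NADPH starts ROS production. Compounds 1 nM-100 μM, 20 min at 37° C.; fluorescence (ex 544/em 590 nm) over 10 min; Ki via Cheng-Prusoff, ≥3 experiments in triplicate.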

## COc1ccc(-c2c3c(=O)n(-c4ccccc4OC)[nH]c3cc(=O)n2Cc2cccnc2)c(F)c1 [Compound (1), 4-(2-fluoro-4-methoxyphenyl)-2-(2-methoxyphenyl)-5-(pyridin-3-ylmethyl)-1H-pyrazolo[4,3-c]pyridine-3,6(2H,5H)-dione]
  pKi: 7.12
